{
  "source": "patent US11053196B2",
  "about": "“Substituted indoline derivatives as dengue viral replication inhibitors” (JANSSEN PHARMACEUTICALS, INC., priority 2017, dated 2021)",
  "key": {"[1]": {"tested_on": "DENV-2 16681 strain", "assay": "DENV-2 antiviral assay (eGFP-labeled virus in Vero cells)", "type": "cell-based, Dengue virus", "conditions": "DENV-2 16681 eGFP, MOI 0.5, 3 days", "description": "The antiviral activity of all the compounds of the invention was tested against the DENV-2 16681 strain which was labeled with enhanced green fluorescent protein (eGPF). The culture medium consists of minimal essential medium supplemented with 2% of heat-inactivated fetal calf serum, 0.04% gentamycin (50 mg/mL) and 2 mM of L-glutamine. Vero cells, obtained from ECACC, were suspended in culture medium and 25 μL was added to 384-well plates (2500 cells/well), which already contain the antiviral compounds. Typically, these plates contain a 5-fold serial dilution of 9 dilution steps of the test compound at 200 times the final concentration in 100% DMSO (200 nL). […] Finally, each plate contains wells which are assigned as virus controls (containing cells and virus in the absence of compound), cell controls (containing cells in the absence of virus and compound) and medium controls (containing medium in the absence of cells, virus and compounds). To the wells assigned as medium control, 25 μL of culture medium was added instead of Vero cells. Once the cells are added to the plates, the plates were incubated for 30 minutes at room temperature to allow the cells to distribute evenly within the wells. Next, the plates were incubated in a fully humidified incubator (37° C., 5% CO2) until the next day. Then, DENV-2 strain 16681, labeled with eGFP, was added at a multiplicity of infection (MOI) of 0.5.\nTherefore, 15 μL of virus suspension was added to all the wells containing test compound and to the wells assigned as virus control. In parallel, 15 μL of culture medium was added to the medium and cell controls. Next, the plates were incubated for 3 days in a fully humidified incubator (37° C., 5% CO2). At the day of the read out, the eGFP fluorescence was measured using an automated fluorescence microscope at 488 nm (blue laser). Using an in-house LIMS system, inhibition dose response curves for each compound were calculated and the half maximal effective concentration (EC50) was determined. Therefore, the percent inhibition (I) for every test concentration is calculated using the following formula: I=100*(ST−SCC)/(SVC−SCC); ST, SCC and SVC are the amount of eGFP signal in the test compound, cell control and virus control wells, respectively. The EC50 represents the concentration of a compound at which the virus replication is inhibited with 50%, as measured by a 50% reduction of the eGFP fluorescent intensity compared to the virus control. The EC50 is calculated using linear interpolation (Table 1)."}, "[2]": {"assay": "Toxicity in DENV-2 antiviral assay plates (ATPlite cell viability)", "conditions": "African green monkey, CC50, Vero cells, same plates as DENV-2 antiviral assay"}, "[3]": {"tested_on": "DENV-1 strain TC974#666", "assay": "Tetravalent RT-qPCR assay, serotype 1", "type": "cell-based", "conditions": "Dengue virus, DENV1, 72 h; RT-qPCR serotype 1 TC974#666, Vero cells, day 3", "description": "(§1) The antiviral activity of the compounds of the invention was tested against DENV-1 strain TC974#666 (NCPV), DENV-2 strain 16681, DENV-3 strain H87 (NCPV) and DENV-4 strain H241 (NCPV) in a RT-qPCR assay. Therefore, Vero cells were infected with either DENV-1, or -2, or -3, or -4 in the presence or absence of test compounds. At day 3 post-infection, the cells were lysed and cell lysates were used to prepare cDNA of both a viral target (the 3′UTR of DENV; Table 2) and a cellular reference gene (1-actin, Table 2). Subsequently, a duplex real time PCR was performed on a Lightcycler480 instrument. The generated Cp value is inversely proportional to the amount of RNA expression of these targets. Inhibition of DENV replication by a test compound results in a shift of Cp's for the 3′UTR gene. On the other hand, if a test compound is toxic to the cells, a similar effect on 1-actin expression will be observed. The comparative ΔΔCp method is used to calculate EC50, which is based on the relative gene expression of the target gene (3′UTR) normalized with the cellular housekeeping gene (1-actin). In addition, CC50 values are determined based on the C, values acquired for the housekeeping gene β-actin.\n(§2) The culture medium consisted of minimal essential medium supplemented with 2% of heat-inactivated fetal calf serum, 0.04% gentamycin (50 mg/mL) and 2 mM of L-glutamine. Vero cells, obtained from ECACC, were suspended in culture medium and 75 μL/well was added in 96-well plates (10000 cells/well), which already contain the antiviral compounds. […] In addition, each plate contains wells which are assigned as virus controls (containing cells and virus in the absence of compound) and cell controls (containing cells in the absence of virus and compound). Once the cells were added in the plates, the plates were incubated in a fully humidified incubator (37° C., 5% CO2) until the next day. Dengue viruses serotype-1, 2, 3 and 4 were diluted in order to obtain a Cp of ˜22-24 in the assay. Therefore, 25 μL of virus suspension was added to all the wells containing test compound and to the wells assigned as virus control. In parallel, 25 μL of culture medium was added to the cell controls. Next, the plates were incubated for 3 days in a fully humidified incubator (37° C., 5% CO2). After 3 days, the supernatant was removed from the wells and the cells were washed twice with ice-cold PBS (−100 μL). The cell pellets within the 96-well plates were stored at −80° C. for at least 1 day. Next, RNA was extracted using the Cells-to-CT™ lysis kit, according to the manufacturer's guideline (Life Technologies). The cell lysates can be stored at −80° C. or immediately used in the reverse transcription step.\n(§3) In preparation of the reverse transcription step, mix A (table 3A) was prepared and 7.57 μL/well was dispensed in a 96-well plate. After addition of 5 μL of the cell lysates, a five minute denaturation step at 75° C. was performed (table 3B). Afterwards, 7.43 μL of mix B was added (table 3C) and the reverse transcription step was initiated (table 3D) to generate cDNA.\n(§4) Finally, a RT-qPCR mix was prepared, mix C (table 4A), and 22.02 μL/well was dispensed in 96-well LightCycler qPCR plates to which 3 μL of cDNA was added and the qPCR was performed according to the conditions in table 4B on a LightCycler 480.\n(§5) Using the LightCycler software and an in-house LIMS system, dose response curves for each compound were calculated and the half maximal effective concentration (EC50) and the half maximal cytotoxic concentration (CC50) were determined (Tables 5-8)."}, "[4]": {"tested_on": "DENV-2 strain 16681", "assay": "Tetravalent RT-qPCR assay, serotype 2", "type": "cell-based", "conditions": "Dengue virus, DENV2, 72 h; RT-qPCR serotype 2 16681, Vero cells, day 3", "description": "as §1, §2, §3, §4, §5"}, "[5]": {"tested_on": "DENV-3 strain H87", "assay": "Tetravalent RT-qPCR assay, serotype 3", "type": "cell-based", "conditions": "Dengue virus, DENV3, 72 h; RT-qPCR serotype 3 H87, Vero cells, day 3", "description": "as §1, §2, §3, §4, §5"}, "[6]": {"tested_on": "DENV-4 strain H241", "assay": "Tetravalent RT-qPCR assay, serotype 4", "type": "cell-based", "conditions": "Dengue virus, DENV4, 72 h; RT-qPCR serotype 4 H241, Vero cells, day 3", "description": "as §1, §2, §3, §4, §5"}, "[7]": {"assay": "in vitro", "type": "cell-based", "conditions": "African green monkey", "description": "as §1, with “The comparative ΔΔCp method is used to calculate EC50, which is based on the relative gene expression of the target gene (3′UTR) normalized with the cellular housekeeping gene (1-actin).” left out, “β-actin. […]” for “β-actin.”\nas §5"}, "[8]": {"tested_on": "Vero cells", "conditions": "African green monkey"}, "[9]": {"assay": "in vitro", "conditions": "African green monkey"}},
  "data": [
    {"compound": "COc1cc(NC(C(=O)N2CCc3cc(F)c(C(F)(F)F)cc32)c2ccc(Cl)cc2)cc(OCCCC(=O)O)c1", "note": "(single isomer, unassigned) [Compound 3A, 4-(3-((1-(4-chlorophenyl)-2-(5-fluoro-6-(trifluoromethyl)indolin-1-yl)-2-oxoethyl)amino)-5-methoxyphenoxy)butanoic acid]", "values": [
      {"measurement": "EC50", "setting": "[1]", "value": 36, "unit": "nM"},
      {"measurement": "CC50", "setting": "[2]", "value": 12, "unit": "µM"}
    ]},
    {"compound": "COc1cc(NC(C(=O)N2CCc3ccc(OC(F)(F)F)cc32)c2ccc(F)cc2OC)cc(OCCCC(=O)O)c1", "note": "(single isomer, unassigned) [Compound 6B, 4-(3-((1-(4-fluoro-2-methoxyphenyl)-2-oxo-2-(6-(trifluoromethoxy)indolin-1-yl)ethyl)amino)-5-methoxyphenoxy)butanoic acid]", "values": [
      {"measurement": "EC50", "setting": "[1]", "value": 0.39, "unit": "nM"},
      {"measurement": "EC50", "setting": "[3]", "value": 0.64, "unit": "nM"},
      {"measurement": "EC50", "setting": "[4]", "value": 0.41, "unit": "nM"},
      {"measurement": "EC50", "setting": "[5]", "value": 5.6, "unit": "nM"},
      {"measurement": "EC50", "setting": "[6]", "value": 29, "unit": "nM"},
      {"measurement": "CC50 at 3 days", "setting": "[7]", "value": 13, "unit": "µM"},
      {"measurement": "CC50", "setting": "[8]", "value": 15, "unit": "µM"}
    ]},
    {"compound": "COc1cc(NC(C(=O)N2CCc3cc(F)c(C(F)(F)F)cc32)c2ccc(Cl)cc2)cc(OCCCC(=O)O)c1", "note": "(single isomer, unassigned) [Compound 3B, 4-(3-((1-(4-chlorophenyl)-2-(5-fluoro-6-(trifluoromethyl)indolin-1-yl)-2-oxoethyl)amino)-5-methoxyphenoxy)butanoic acid]", "values": [
      {"measurement": "EC50", "setting": "[1]", "value": 0.12, "unit": "nM"},
      {"measurement": "EC50", "setting": "[3]", "value": 0.1, "unit": "nM"},
      {"measurement": "EC50", "setting": "[4]", "value": 0.096, "unit": "nM"},
      {"measurement": "EC50", "setting": "[5]", "value": 1.5, "unit": "nM"},
      {"measurement": "EC50", "setting": "[6]", "value": 14, "unit": "nM"},
      {"measurement": "CC50 at 3 days", "setting": "[7]", "value": "> 2.5", "unit": "µM"},
      {"measurement": "CC50", "setting": "[9]", "value": 13, "unit": "µM"}
    ]},
    {"compound": "COc1cc(NC(C(=O)N2CCc3c(C)cc(OC(F)(F)F)cc32)c2ccc(Cl)cc2)cc(OCCCC(=O)O)c1", "note": "(single isomer, unassigned) [Compound 4A, 4-(3-((1-(4-chlorophenyl)-2-(4-methyl-6-(trifluoromethoxy)indolin-1-yl)-2-oxoethyl)amino)-5-methoxyphenoxy)butanoic acid]", "values": [
      {"measurement": "EC50", "setting": "[1]", "value": 11, "unit": "nM"},
      {"measurement": "CC50", "setting": "[2]", "value": 13, "unit": "µM"}
    ]}
  ]
}
